Results taken from ChEMBL document CHEMBL1136418, “Synthesis and gamma-secretase activity of APP substrate-based hydroxyethylene dipeptide isosteres” (Bioorg Med Chem Lett, 2003).

Key:
[1] = target: T1, Gamma-secretase subunit PEN-2 (Homo sapiens, UniProt Q9NZ42); assay: Compound required for inhibition of gamma-secretase-mediated formation of Abeta1-42 polypeptide; format: functional
[2] = target: T1, Gamma-secretase subunit PEN-2; assay: Compound required for inhibition of gamma-secretase-mediated formation of Abeta1-40 polypeptide; format: functional
[3] = target: T1, Gamma-secretase subunit PEN-2; assay: Inhibitory concentration against gamma-secretase was determined

T1 sequence (Q9NZ42 whole entry): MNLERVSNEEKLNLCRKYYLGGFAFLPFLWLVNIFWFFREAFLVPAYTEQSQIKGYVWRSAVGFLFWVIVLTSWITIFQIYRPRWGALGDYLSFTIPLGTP

SMILES	ED50 [1]	ED50 [2]	IC50 [3]
CC[C@H](C)[C@H](NC(=O)[C@@H](NC(=O)[C@H](Cc1ccccc1)C[C@@H](O)[C@H](Cc1ccccc1)NC(=O)OC(C)(C)C)C(C)C)C(N)=O	35 µM	32 µM	–
CC(C)C[C@H](NC(=O)/C(=C/C[C@H](Cc1ccccc1)NC(=O)OC(C)(C)C)Cc1ccccc1)C(=O)N[C@@H](Cc1ccccc1)C(N)=O	> 10 µM	> 10 µM	–
CC(C)C[C@H](NC(=O)[C@H](CN)C[C@@H](O)[C@H](Cc1ccccc1)NC(=O)OC(C)(C)C)C(=O)N[C@@H](Cc1ccccc1)C(N)=O	> 10 µM	> 10 µM	–
CC(C)C[C@H](NC(=O)[C@H](Cc1ccccc1)C[C@@H](O)[C@H](Cc1ccccc1)NC(=O)OC(C)(C)C)C(=O)N[C@@H](Cc1ccccc1)C(N)=O	0.014 µM	0.036 µM	0.3 µM
CC(C)C[C@H](NC(=O)C(CC[C@H](Cc1ccccc1)NC(=O)OC(C)(C)C)Cc1ccccc1)C(=O)N[C@@H](Cc1ccccc1)C(N)=O (stereo partly specified)	> 10 µM	> 10 µM	–
CC(NC(=O)[C@H](Cc1ccccc1)C[C@@H](O)[C@H](Cc1ccccc1)NC(=O)OC(C)(C)C)C(=O)N[C@H](C(N)=O)[C@H](C)O (single isomer, unassigned)	230 µM	732 µM	–

Further lines, results first:

ED50 [1]	ED50 [2]	IC50 [3]	SMILES
> 10 µM	> 10 µM	–	CCC(C)C(C[C@@H](O[Si](C)(C)C(C)(C)C)[C@@H](NC(=O)OC(C)(C)C)C(C)C)C(=O)N[C@@H](C)C(=O)N[C@H](C(N)=O)C(C)O (stereo partly specified)
> 10 µM	> 10 µM	–	CCC(C)[C@H](NC(=O)[C@@H](NC(=O)[C@@H](C[C@@H](O[Si](C)(C)C(C)(C)C)[C@H](C)NC(=O)OC(C)(C)C)[C@@H](C)O[Si](C)(C)C(C)(C)C)C(C)C)C(N)=O (stereo partly specified)
> 10 µM	> 10 µM	–	CCC(C)[C@H](NC(=O)[C@@H](NC(=O)[C@H](C[C@@H](O[Si](C)(C)C(C)(C)C)[C@H](C)NC(=O)OC(C)(C)C)C(C)O[Si](C)(C)C(C)(C)C)C(C)C)C(N)=O (stereo partly specified)
> 10 µM	> 10 µM	–	CCC(C)[C@H](NC(=O)[C@@H](NC(=O)[C@@H](C[C@@H](O[Si](C)(C)C(C)(C)C)[C@H](C)NC(=O)OC(C)(C)C)[C@H](C)O[Si](C)(C)C(C)(C)C)C(C)C)C(N)=O (stereo partly specified)
